Patent publication US8835489B2, “Compounds of the pterocarpanquinone family, method for preparing the same, pharmaceutical composition containing the new compounds of the pterocarpanquinone family, uses and therapeutic method” (Universidade Federal Do Rio de Janeiro, priority 2008, dated 2014)

Experiments:
[1] = system: TNF-α release by PBMC; assay: LPS-stimulated release of TNF-α by PBMC in vitro; type: cell-based, human; conditions: FIG. 3, p<0.05
Procedure: Mononuclear cells were obtained from peripheral blood of healthy donors by gradient centrifugation in Ficoll. 20 ml peripheral blood were carefully added to 16 mL of Ficoll followed by centrifugation at 1500×g for 30 minutes. Once collected, the PBMC were washed twice with saline and resuspended in culture field RPMI 1640 containing 0.1 mg streptomycin/mL, penicillin 100 U/mL and supplemented with 10% of FCS. The PBMC resuspended in RPMI were seeded in 24-well plate (8×10^5 cells/well). The cells were incubated with LPS at a concentration of 2 μg/mL at 37° C. in 4% CO2 for 2 hours. After incubation with LPS, the supernatant was collected and centrifuged at 14,000×g for 1 minute to rule out any possible cell. The supernatant was stored at −20° C. for subsequent cytokine. […] A group of cells received only the vehicle.

[2] = system: neutrophils in LBA; assay: LPS inhalation in mice, neutrophils in bronchoalveolar lavage; conditions: in vivo, FIG. 4, p<0.05 compared to vehicle group
Procedure: For inhalation of LPS, we used a glass inhalation chamber with a volume of 1 liter, with a capacity of 8 mice. The mice were placed in this chamber for five minutes and inhaled aerosols produced by positive pressure of 2 mL of a suspension of LPS containing 0.5 mg/mL, prepared in physiological saline (NaCl 0.9%). The control group inhaled saline only. Groups of animals were treated with LQB dissolved in physiological saline with 10% ethanol (vehicle) at doses of 1, 10 and 100 mg/kg. The substances were administered in a volume of 200 μL intraperitoneal (ip) 1 hour before LPS inhalation. In parallel, groups of animals were treated with 200 μL of the vehicle. Three hours after inhalation of LPS, animals were sacrificed by cervical dislocation, their tracheas were exposed, cannulated and lungs were washed with saline to a final volume of 1.5 mL in tubes kept at 4° C. […] An aliquot of 300 μL of lavage was used to count and identify the cells and the remainder was centrifuged at 1,500×g for 10 minutes (Sorvall, USA). […] The total number of cells was determined in a cell counter type Coulter Counter (Coulter Electronics Inc.—USA). The identification of different cell types present in BAL cytospin was made after 200 μl of LBA at 80×g for 1 minute (Shandon—USA). The slides prepared from cytospin stained with Diff-Quick kit (Shandon, USA). We counted approximately 200 cells on each slide. […]

## O=C1C2=C(C(=O)c3ccccc31)[C@H]1Oc3ccccc3[C@H]1CO2 [LQB1]
[1]
  release of TNF-α by PBMC: inhibiting release of TNF-α
[2]
  release of neutrophils in LBA: inhibiting the release of neutrophils
